In patent publication EP4800013A1, “PARG INHIBITOR” (Shanghai Qilu Pharmaceutical Research and Development …, priority 2023, dated 2025):

Columns and labels:
PARG = biological target: T1, PARG (Homo sapiens, UniProt Q86W56); assay: Enzymatic inhibitory activity against PARG, HTRF assay; type: biochemical; details: HTRF; PARylated PARP1 protein as substrate; 60 minutes at room temperature; read-out: IC50 against PARG enzyme
T1 construct: made in house
Description: In this experiment, the enzymatic inhibitory activity of the compounds of the present disclosure against PARG was determined using an HTRF (homogeneous time-resolved fluorescence) assay.
HTRF assay reagents were purchased from PerkinElmer (Cat. Nos. 61HISTLB and 610SAXLB). The purified protein was prepared in-house.
PARG enzyme reaction buffer: 50 mM Tris (pH 7.4), 0.1 mg/mL BSA, 3 mM EDTA, 0.4 mM EGTA, 1 mM DTT, 50 mM KCl, and 0.01% Tween 20.
• 1) Using an ultra-micro pipette, the compounds of the present disclosure were serially diluted (starting at 10 µM with 3- to 5-fold serial dilutions) and added to a 384-well reaction plate, with each concentration tested in duplicate wells. Control group 1 was added with 10 µM control compound (100% inhibition group). Control group 2 was added with DMSO (0% inhibition group). After compound addition, the 384-well plate was centrifuged at 1000 rpm for 1 minute. • 2) 2.5 µL of PARG protein was added to each well and incubated with the compounds of the present disclosure at room temperature for 15 minutes, followed by centrifugation at 1000 rpm for 1 minute. • 3) 2.5 µL of PARylated PARP1 protein was added to each well and incubated at room temperature for 60 minutes, followed by centrifugation at 1000 rpm for 1 minute. • 4) 5 µL of His-Tb & SA-XL665 HTRF assay reagents were added to each well and incubated at room temperature for 60 minutes, followed by centrifugation at 1000 rpm for 1 minute. • 5) […] were measured using a PHERAstar FSX microplate reader from BMG. • 6) Data analysis was performed using GraphPad Prism 8. The IC50 values of the compounds of the present disclosure were calculated as follows. […] The average value of duplicate wells in control group 2 (0% inhibition group) was set as the relative inhibition rate of 0%. The HTRF signal values were converted into relative inhibition rates. The IC50 values of the compounds were calculated by fitting the data to a four-parameter logistic model. Table 15: Enzymatic inhibitory activity of the compounds of the present disclosure against PARG

KURAMOCHI cells = assay: Inhibition of proliferation of KURAMOCHI cells (CellTiter-Glo, intracellular ATP); type: cell-based; details: 168 h, incubated for 7 days, read-out: IC50 against KURAMOCHI cells
Description: In this experiment, the inhibitory effect of the compounds of the present disclosure on the proliferation of the cancer cell line KURAMOCHI was evaluated by measuring intracellular ATP levels using a bioluminescent assay, and the half maximal inhibitory concentration (IC50) was determined.
RPMI 1640 medium (Cat. No. 11875-093), fetal bovine serum (10099-141), and 100× Pen/Strep (15070-063) were purchased from GIBCO. CellTiter-Glo Luminescent Cell Viability Assay reagent (Cat. No. G7573) was purchased from Promega.
• 1) Day 1: KURAMOCHI cells were counted using a cell counter and seeded into a 96-well culture plate at a density of 4000 cells per well in 100 µL medium. The plate was incubated overnight in an incubator (37°C, 5% CO2). • 2) Day 2: Using a D300e digital dispenser (TECAN), 500 nL of serially diluted test compounds of the present disclosure (starting at 10 µM, a total of 9 concentrations, 1:4 dilution) were added to the cells in the culture plate. The final concentration of DMSO was 0.5%. The cell culture plate was incubated for 7 days in a cell culture incubator (37°C, 5% CO2). Control group 1 received only medium and DMSO (100% inhibition group). Control group 2 received only DMSO (0% inhibition group). The final concentration of DMSO in both groups was 0.5%. • 3) Day 9: 100 µL of CellTiter-Glo reagent was added to each well. The plate was shaken at 500 rpm for 2 minutes, centrifuged at 1000 rpm for 1 minute, and then incubated at room temperature in the dark for 10 minutes to stabilize the luminescence signal. • 4) Luminescence signals were measured using an EnVision microplate reader (PerkinElmer). • 5) Data analysis was performed using GraphPad Prism 8. The IC50 values of the compounds of the present disclosure were calculated as follows. The CTG signal values were analyzed. The average inhibition rate of control group 1 (100% inhibition group) was set as the relative inhibition rate of 100%. The average inhibition rate of control group 2 (0% inhibition group) was set as the relative inhibition rate of 0%. The CTG signal values were converted into relative inhibition rates. The inhibition percentage (inhibition%) for each concentration of the compounds of the present disclosure was calculated according to the following formula: Inhibition% = (b−x)/(b−a)*100%; [formula] • a = CTG value (highest concentration), b = CTG value (blank well), x = CTG value (test well). • IC50 was calculated using GraphPad Prism 8. • (1) The concentration and inhibition rate corresponding to each well were recorded. Statistical calculation was performed using Log10 (compound concentration). • (2) The data were input into GraphPad Prism 8 and Analysis was selected. • (3) Nonlinear regression (curve fit) was selected. • (4) Log (inhibitor) vs. response - Variable slope was selected. • (5) The calculation formula was selected, and the calculation was performed according to the following formula: Y = Bottom + (Top - Bottom) / (1 + 10 ^ ((LogIC50 - X) * HillSlope)); X: log of dose or concentration; Y: response; Top and Bottom: maximum and minimum response. • (6) The IC50 values were calculated by fitting the data. Table 16: Inhibitory effect of the compounds of the present disclosure on the proliferation of KURAMOCHI cells

T1 sequence (Q86W56 whole entry): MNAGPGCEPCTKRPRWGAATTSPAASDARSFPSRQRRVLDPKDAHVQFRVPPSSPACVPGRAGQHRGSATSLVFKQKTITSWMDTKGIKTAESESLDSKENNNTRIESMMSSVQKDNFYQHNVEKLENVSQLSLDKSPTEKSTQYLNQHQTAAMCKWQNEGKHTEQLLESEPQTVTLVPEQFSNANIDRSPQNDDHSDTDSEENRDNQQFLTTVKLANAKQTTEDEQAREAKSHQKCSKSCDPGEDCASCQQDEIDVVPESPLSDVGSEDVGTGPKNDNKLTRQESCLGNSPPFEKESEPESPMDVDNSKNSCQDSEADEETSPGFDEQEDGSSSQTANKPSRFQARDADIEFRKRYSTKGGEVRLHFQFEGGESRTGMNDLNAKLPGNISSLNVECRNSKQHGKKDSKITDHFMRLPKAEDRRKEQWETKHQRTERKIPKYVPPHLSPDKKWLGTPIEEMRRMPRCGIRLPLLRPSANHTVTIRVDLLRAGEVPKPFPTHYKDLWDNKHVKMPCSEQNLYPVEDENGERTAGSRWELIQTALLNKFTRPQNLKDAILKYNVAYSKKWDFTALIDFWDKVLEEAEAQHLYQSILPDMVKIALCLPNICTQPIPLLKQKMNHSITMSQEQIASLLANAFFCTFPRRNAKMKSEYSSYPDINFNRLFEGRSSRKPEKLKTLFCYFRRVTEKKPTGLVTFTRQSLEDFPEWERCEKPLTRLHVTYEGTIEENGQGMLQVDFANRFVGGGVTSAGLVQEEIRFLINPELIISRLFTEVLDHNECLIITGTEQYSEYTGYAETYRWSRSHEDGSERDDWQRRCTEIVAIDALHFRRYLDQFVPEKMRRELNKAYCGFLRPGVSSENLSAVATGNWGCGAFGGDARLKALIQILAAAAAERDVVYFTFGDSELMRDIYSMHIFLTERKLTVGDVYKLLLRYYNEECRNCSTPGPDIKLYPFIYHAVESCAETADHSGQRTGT

Row | SMILES | IC50 (PARG) [nM] | IC50 (KURAMOCHI cells) [nM]
1 | CC(C)Oc1nc2c(N3CCN(C(=O)C(C)C)CC3)cc(S(=O)(=O)NC3(C#N)CC3)cc2n1-c1nnc(C(F)F)s1 [Compound 057L] | 8.6 | 8
2 | CN(C)C(=O)N1CCN(c2cc(S(=O)(=O)NC3(C#N)CC3)cc3c2nc(OC2CC2)n3-c2nnc(C(F)F)s2)CC1 [Compound 057M] | 2.8 | 6
3 | CC(C)C(=O)N1CCN(c2cc(S(=O)(=O)NC3(C#N)CC3)cc3c2nc(OC2COC2)n3-c2nnc(C(F)F)s2)CC1 [Compound 057N] | 8.3 | 9
4 | CC(C)C(=O)N1CCN(c2cc(S(=O)(=O)NC3(C#N)CC3)cc3c2nc(OC2CC2)n3-c2nnc(C(F)F)s2)CC1 [Compound 057Q] | 5.1 | 7
5 | CN(C)C(=O)N1CCC(c2cc(S(=O)(=O)NC3(C#N)CC3)cc3c2ncn3-c2nnc(C(F)F)s2)CC1 [Compound 059C] | 6.5 | 20
6 | CC(C)C(=O)N1CCC(c2cc(S(=O)(=O)NC3(C#N)CC3)cc3c2ncn3-c2nnc(C(F)F)s2)CC1 [Compound 059D] | 28.8 | 40
7 | C[C@H]1CN(c2cc(S(=O)(=O)NC3(CF)CC3)cc3c2c2nccnc2n3-c2nnc(C(F)F)s2)C[C@H](C)N1 [Compound 065I] | 1.8 | 5
8 | [2H]C([2H])([2H])C1(NS(=O)(=O)c2cc(N3C[C@H](C)N[C@@H](C)C3)c3c4nccnc4n(-c4nnc(C(F)F)s4)c3c2)CC1 [Compound 065J] | 2.4 | 7
9 | C[C@H]1CN(c2cc(S(=O)(=O)NC3(C#N)CC3)cc3c2c2nccnc2n3-c2nnc(C(F)F)s2)C[C@H](C)N1 [Compound 065K] | 6.3 | 22
10 | C[C@H]1CN(c2cc(S(=O)(=O)NC3(C)COC3)cc3c2c2nccnc2n3-c2nnc(C(F)F)s2)C[C@H](C)N1 [Compound 065L] | 5.5 | 18
11 | C[C@H]1CN(c2cc(S(=O)(=O)NC3(C#N)CC3)cc3c2n2ncnc2n3-c2nnc(C(F)F)s2)C[C@H](C)N1 [Compound 065N] | 7.3 | 9
12 | [2H]C([2H])([2H])C1(NS(=O)(=O)c2cc(N3C[C@H](C)N[C@@H](C)C3)c3c(c2)n(-c2nnc(C(F)F)s2)c2ncnn32)CC1 [Compound 065O] | 3.1 | 3
13 | C[C@H]1CN(c2cc(S(=O)(=O)NC3(C)COC3)cc3c2n2ncnc2n3-c2nnc(C(F)F)s2)C[C@H](C)N1 [Compound 065P] | 5.8 | 7
14 | C[C@H]1CN(c2cc(S(=O)(=O)NC3(C)CC3)cc3c2n2nc(C(C)(C)O)nc2n3-c2nnc(C(F)F)s2)C[C@H](C)N1 [Compound 065T] | 1.5 | 13
15 | COCc1nc2n(-c3nnc(C(F)F)s3)c3cc(S(=O)(=O)NC4(C)CC4)cc(N4C[C@H](C)N[C@@H](C)C4)c3n2n1 [Compound 065U] | 0.5 | 2
16 | C[C@H]1CN(c2cc(S(=O)(=O)NC3(C)CC3)cc3c2n2nc(Cl)nc2n3-c2nnc(C(F)F)s2)C[C@H](C)N1 [Compound 065X] | 0.5 | 4

Row | SMILES | IC50 (PARG) [nM] | IC50 (KURAMOCHI cells) [nM]
17 | CC(C)c1nc2n(-c3nnc(C(F)F)s3)c3cc(S(=O)(=O)NC4(C)CC4)cc(N4C[C@H](C)N[C@@H](C)C4)c3n2n1 [Compound 065Y] | 0.8 | 6
18 | C[C@H]1CN(c2cc(S(=O)(=O)NC3(C)CC3)cc3c2n2nc(C4CC4)nc2n3-c2nnc(C(F)F)s2)C[C@H](C)N1 [Compound 065Z] | 1 | 4
19 | C=CCn1c(=O)n(-c2nnc(C(F)F)s2)c2cc(S(=O)(=O)NC3(C#N)CC3)cc(N3CCN(C(=O)N4CCC4)CC3)c21 [Compound 067B] | 6.9 | 15
20 | C=CCn1c(=O)n(-c2nnc(C(F)F)s2)c2cc(S(=O)(=O)NC3(C#N)CC3)cc(N3CCN(C(=O)N4CCOCC4)CC3)c21 [Compound 067G] | 8.7 | 26
21 | C=CCn1c(=O)n(-c2nnc(C(F)F)s2)c2cc(S(=O)(=O)NC3(C#N)CC3)cc(N3CCN(c4nccn4C)CC3)c21 [Compound 067J] | 7.8 | 21
22 | [2H]C([2H])([2H])OC(C)(C)C(=O)N1CCN(c2cc(S(=O)(=O)NC3(C#N)CC3)cc3c2n(CC=C)c(=O)n3-c2nnc(C(F)F)s2)CC1 [Compound 067LD] | 2.2 | 5
23 | C=CCn1c(=O)n(-c2nnc(C(F)F)s2)c2cc(S(=O)(=O)NC3(C#N)CC3)cc(N3CCN(C(=O)C(C)(C)OC)CC3)c21 [Compound 067L] | 4.9 | 4
24 | [2H]C([2H])([2H])OC1(C(=O)N2CCN(c3cc(S(=O)(=O)NC4(C#N)CC4)cc4c3n(CC=C)c(=O)n4-c3nnc(C(F)F)s3)CC2)CC1 [Compound 067ND] | 2.3 | 3
25 | C=CCn1c(=O)n(-c2nnc(C(F)F)s2)c2cc(S(=O)(=O)NC3(C#N)CC3)cc(N3CCN(C(=O)C4(OC)CC4)CC3)c21 [Compound 067N] | 3.1 | 3
26 | C=CCn1c(=O)n(-c2nnc(C(F)F)s2)c2cc(S(=O)(=O)NC3(C#N)CC3)cc(N3CCN(C(=O)C(C)(C)N)CC3)c21 [Compound 067P] | 5.2 | 74
27 | C=CCn1c(=O)n(-c2nnc(C(F)F)s2)c2cc(S(=O)(=O)NC3(C#N)CC3)cc(N3CCN(C(=O)C(C)(C)NC)CC3)c21 [Compound 067Q] | 5 | 13
28 | C=CCn1c(=O)n(-c2nnc(C(F)F)s2)c2cc(S(=O)(=O)NC3(C#N)CC3)cc(N3CCN(S(=O)(=O)C4CC4)CC3)c21 [Compound 067R] | 3.4 | 6
29 | C=CCn1c(=O)n(-c2nnc(C(F)F)s2)c2cc(S(=O)(=O)NC3(C#N)CC3)cc(N3CCN(C(=O)C4CC4)CC3)c21 [Compound 067S] | 13.3 | 14
30 | C=CCn1c(=O)n(-c2nnc(C(F)F)s2)c2cc(S(=O)(=O)NC3(C#N)CC3)cc(N3CCN(C(=O)C(C)(C)C)CC3)c21 [Compound 067T] | 16 | 11
31 | C=CCn1c(=O)n(-c2nnc(C(F)F)s2)c2cc(S(=O)(=O)NC3(C#N)CC3)cc(N3CCN(C(=O)C4CCC4)CC3)c21 [Compound 067U] | 20 | 21
32 | C=CCn1c(=O)n(-c2nnc(C(F)F)s2)c2cc(S(=O)(=O)NC3(C#N)CC3)cc(N3CCN(C(=O)C4COC4)CC3)c21 [Compound 067V] | 13.4 | 83
